Data from US20250221966A1, “RXFP1 AGONISTS” (BRISTOL-MYERS SQUIBB COMPANY, priority 2021, published 2025).

Biological target: T1, human RXFP1 (Homo sapiens, UniProt Q9HBX9)
T1 construct: expressed in transfected cells
T1 sequence (Q9HBX9 1-757): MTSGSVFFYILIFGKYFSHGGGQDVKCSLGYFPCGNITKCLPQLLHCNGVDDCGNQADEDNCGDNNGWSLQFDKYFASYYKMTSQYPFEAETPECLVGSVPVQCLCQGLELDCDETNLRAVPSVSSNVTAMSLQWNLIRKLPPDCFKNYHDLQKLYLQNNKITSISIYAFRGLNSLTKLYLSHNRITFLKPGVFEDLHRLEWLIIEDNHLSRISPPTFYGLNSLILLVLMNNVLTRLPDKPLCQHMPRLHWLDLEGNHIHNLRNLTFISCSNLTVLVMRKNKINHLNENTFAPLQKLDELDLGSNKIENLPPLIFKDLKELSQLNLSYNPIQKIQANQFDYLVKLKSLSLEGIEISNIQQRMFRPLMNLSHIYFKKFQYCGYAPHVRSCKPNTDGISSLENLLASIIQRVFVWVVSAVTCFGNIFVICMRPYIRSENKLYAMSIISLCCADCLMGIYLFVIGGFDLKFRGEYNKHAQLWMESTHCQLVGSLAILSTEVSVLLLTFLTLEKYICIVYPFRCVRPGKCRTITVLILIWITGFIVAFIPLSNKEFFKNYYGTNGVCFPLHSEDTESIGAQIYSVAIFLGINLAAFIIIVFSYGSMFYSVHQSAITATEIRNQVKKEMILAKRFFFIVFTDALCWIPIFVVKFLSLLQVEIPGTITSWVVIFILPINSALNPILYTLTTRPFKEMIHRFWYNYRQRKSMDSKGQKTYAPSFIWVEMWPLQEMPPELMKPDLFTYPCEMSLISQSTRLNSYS
Assay: RXFP1 cAMP assay (hRXFP1 HEK293 cAMP assay, HTRF)
Format: cell-based
Conditions: HEK293 cells stably expressing human RXFP1, 30 min at room temperature, read-out: cAMP hRXFP1 HEK293 Assay EC50
Procedure, shortened: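 In a stable human RXFP1 HEK293 line, compounds acted for 30 min at RT in buffer with 0.5 mM IBMX. HTRF then quantified cellular cAMP.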

First: COc1ccc(-c2ccncc2OC)cc1C(=O)N[C@H]1[C@@H](C(=O)Nc2ccc(F)c(C(F)(F)F)c2)[C@H]2CC[C@@H]1C2=C(C)C [compound 89]
Second: COc1ccc(-c2ccc(F)nc2F)cc1C(=O)N[C@H]1[C@@H](C(=O)Nc2ccc(F)c(C(F)(F)F)c2)[C@H]2CC[C@@H]1C2=C(C)C [compound 106]
The EC50 of the first is 8.2-fold lower: 0.33 µM for the first, 2.7 µM for the second.

Going from `COc1ccc(C2=CCCN(CC(=O)O)C2)cc1C(=O)N[C@H]1[C@@H](C(=O)Nc2ccc(F)c(C(F)(F)F)c2)[C@H]2CC[C@@H]1/C2=C\C1CC1` [Example 259, 2-(5-(3-(((1R,2R,3S,4R,Z)-7-(cyclopropylmethylene)-3-((4-fluoro-3-(trifluoromethyl)phenyl)carbamoyl)bicyclo[2.2.1]heptan-2-yl)carbamoyl)-4-methoxyphenyl)-3,6-dihydropyridin-1(2H)-yl)acetic acid] to `COc1ccc(C2=NOC(CO)C2)cc1C(=O)N[C@H]1[C@@H](C(=O)Nc2ccc(F)c(C(F)(F)F)c2)[C@H]2CC[C@@H]1/C2=C\C1CCC1` (mixture of isomers) [Example 378, (1R,2S,3R,4R,Z)-7-(cyclobutylmethylene)-N-(4-fluoro-3-(trifluoromethyl)phenyl)-3-(5-(5-(hydroxymethyl)-4,5-dihydroisoxazol-3-yl)-2-methoxybenzamido)bicyclo[2.2.1]heptane-2-carboxamide], the EC50 falls from 0.815 µM to 0.016 µM (51-fold). The second is the more potent here.

Compared with `COc1ccc(C2=NOC(CCO)C2)cc1C(=O)N[C@@H]1C2CCC(/C2=C/C2CC2)[C@@H]1C(=O)Nc1ccc(F)c(C(F)(F)F)c1` (stereo partly drawn) [compound 399], `COc1ccc(C2=NOC3CC(CO)CC23)cc1C(=O)N[C@H]1[C@@H](C(=O)Nc2ccc(F)c(C(F)(F)F)c2)[C@H]2CC[C@@H]1/C2=C\C1CC1` (stereo partly drawn) [Example 429, (1R,2S,3R,4R,Z)-7-(cyclopropylmethylene)-N-(4-fluoro-3-(trifluoromethyl)phenyl)-3-(5-(5-(hydroxymethyl)-3a,5,6,6a-tetrahydro-4H-cyclopenta[d]isoxazol-3-yl)-2-methoxybenzamido)bicyclo[2.2.1]heptane-2-carboxamide] is 21-fold lower in EC50: 0.042 µM for the first, 0.002 µM for the second.

Compared with `CCOC(=O)C(NC(=O)C1CCOCC1)c1cnn(-c2ccc(OC)c(C(=O)N[C@@H]3C4CCC(/C4=C/C(F)(F)F)[C@@H]3C(=O)Nc3ccc(F)c(C(F)(F)F)c3)c2)c1` (stereo partly drawn) [Example 346], `COc1ccc(-c2cc(C(NC(=O)CC3CCOCC3)C(=O)O)ccc2F)cc1C(=O)N[C@@H]1C2CCC(/C2=C/C(F)(F)F)[C@@H]1C(=O)Nc1ccc(F)c(C(F)(F)F)c1` (stereo partly drawn) [compound 242] is 56-fold lower in EC50: 0.169 µM for the first, 0.003 µM for the second.

First: CCC/C=C1\[C@H]2CC[C@@H]1[C@H](C(=O)Nc1ccc(F)c(C(F)(F)F)c1)[C@@H]2NC(=O)c1cc(C2=NOC3CC(CO)CC23)ccc1OC (stereo partly drawn) [compound 800]
Second: COc1ccc(C2=NOC3CC(CF)CC23)cc1C(=O)N[C@H]1[C@@H](C(=O)Nc2ccc(F)c(C(F)(F)F)c2)[C@H]2CC[C@@H]1/C2=C\C1CC1 (stereo partly drawn) [compound 866]
The EC50 of the first is 4.8-fold lower: 0.001 µM for the first, 0.0048 µM for the second. The first is the more potent here.

`COc1ccc(-c2cc(C3OC(=O)N(c4ccccc4)C3=O)ccc2F)cc1C(=O)N[C@@H]1C2CCC(/C2=C/C2CC2)[C@@H]1C(=O)Nc1ccc(F)c(C(F)(F)F)c1` (stereo partly drawn) [compound 255] and `COc1ccc(-c2cc(C(N)C(=O)O)ccc2F)cc1C(=O)NC1[C@@H]2CC[C@@H](/C2=C/C2CC2)[C@@H]1C(=O)Nc1ccc(F)c(C(F)(F)F)c1` (stereo partly drawn) [compound 969] are within 1.5-fold of each other in EC50: 0.003 µM for the first, 0.0036 µM for the second.

Going from `COc1ccc(C2=NOC3CC(C(C)(C)O)CC23)cc1C(=O)N[C@H]1[C@@H](C(=O)Nc2ccc(F)c(C(F)(F)F)c2)[C@H]2CC[C@@H]1/C2=C\C1CC1` (single isomer, unassigned) [compound 464] to `COc1ccc(C2=NOC3CC(C(C)O)CC23)cc1C(=O)N[C@H]1[C@@H](C(=O)Nc2ccc(F)c(C(F)(F)F)c2)[C@H]2CC[C@@H]1/C2=C\C1CC1` (stereo partly drawn) [compound 844], the EC50 falls from 0.0032 µM to 0.0012 µM (2.7-fold). The second is the more potent here.

Compared with `COc1ccc(-c2cc(C(=O)O)ccc2F)cc1C(=O)N[C@@H]1C2CCC(/C2=C/C2CC2)[C@@H]1C(=O)Nc1cccc(-c2csnn2)c1` (stereo partly drawn) [compound 271], `COc1ccc(-c2cc(C(=O)O)ccc2F)cc1C(=O)N[C@@H]1C2CCC(/C2=C/C2CC2)[C@@H]1C(=O)N[C@H](C)c1ccccc1` (stereo partly drawn) [compound 261] is 2.8-fold higher in EC50: 0.664 µM for the first, 1.88 µM for the second.

Compared with `COc1ccc(C2=NOC3COCC23)cc1C(=O)N[C@H]1[C@@H](C(=O)NC2CCC(C(F)(F)F)C2)[C@H]2CC[C@@H]1/C2=C\C1CC1` (single isomer, unassigned) [Example 589], `COc1ccc(C2=NOC3COCC23)cc1C(=O)N[C@H]1[C@@H](C(=O)NC(C)(C)C#N)[C@H]2CC[C@@H]1/C2=C\C1CC1` (stereo partly drawn) [compound 633] is 2.3-fold higher in EC50: 0.0835 µM for the first, 0.19 µM for the second. The first is the more potent here.

`COc1ccc(-c2cc(C(=O)N3CC[C@H](O)C3)on2)cc1C(=O)N[C@H]1[C@@H](C(=O)Nc2ccc(F)c(C(F)(F)F)c2)[C@H]2CC[C@@H]1/C2=C\C1CC1` [compound 640] and `COc1ccc(N2CCCC2=O)cc1C(=O)N[C@H]1[C@@H](C(=O)Nc2ccc(F)c(C(F)(F)F)c2)[C@H]2CC[C@@H]1/C2=C\C1CC1` [compound 636] are within 1.5-fold of each other in EC50: 0.214 µM for the first, 0.196 µM for the second.

Going from `COc1cc(F)c(F)cc1C(=O)N[C@@H]1C2CCC(/C2=C/C2=CCOCC2)[C@@H]1C(=O)Nc1ccc(F)c(C(F)(F)F)c1` (stereo partly drawn) [compound 42] to `COc1cc(F)c(F)cc1C(=O)N[C@@H]1C2CCC(/C2=C/c2ccccc2C#N)[C@@H]1C(=O)Nc1ccc(F)c(C(F)(F)F)c1` (stereo partly drawn) [compound 68], the EC50 rises from 0.13 µM to 3.2 µM (25-fold).

`COc1ccc(C2=NOC3COCC23)cc1C(=O)N[C@H]1[C@@H](C(=O)N[C@@H]2CCOc3ccccc32)[C@H]2CC[C@@H]1/C2=C\C1CC1` (stereo partly drawn) [compound 645] and `Cc1ccc(C2=NOC3COCC23)cc1C(=O)N[C@H]1[C@@H](C(=O)Nc2ccc(F)c(C(F)(F)F)c2)[C@H]2CC[C@@H]1/C2=C\C1CC1` (single isomer, unassigned) [compound 654] are within 1.5-fold of each other in EC50: 0.239 µM for the first, 0.3 µM for the second.

Compared with `COc1ccc(Br)cc1C(=O)N[C@@H]1C2CCC(/C2=C\c2ccccc2)[C@@H]1C(=O)Nc1ccc(F)c(C(F)(F)F)c1` (stereo partly drawn) [Example 78], `COc1ccc(-c2cc(CC(=O)O)ccc2F)cc1C(=O)N[C@@H]1C2CCC(/C2=C/c2ccccc2)[C@@H]1C(=O)Nc1ccc(F)c(C(F)(F)F)c1` (stereo partly drawn) [compound 187] is 100-fold lower in EC50: 1.9 µM for the first, 0.019 µM for the second. The second is the more potent here.

Compared with `COc1ccc(C2=NO[C@H]3C[C@H](CO)C[C@@H]23)cc1C(=O)N[C@H]1[C@@H](C(=O)N[C@H](C)C2(C)CC2)[C@H]2CC[C@@H]1/C2=C\CC(O)C(F)(F)F` (stereo partly drawn) [compound 815], `COc1c(F)cc(C2=NOC3CC(CO)CC23)cc1C(=O)N[C@H]1[C@@H](C(=O)N[C@H](C)C23CC(C2)C3)[C@H]2CC[C@@H]1/C2=C\C1CC1` (stereo partly drawn) [compound 776] is 3.3-fold higher in EC50: 0.0015 µM for the first, 0.005 µM for the second.

First: COc1ccc(-c2cncc(C(=O)O)c2)cc1C(=O)N[C@@H]1C2CCC(/C2=C/C(F)(F)F)[C@@H]1C(=O)Nc1ccc(F)c(C(F)(F)F)c1 (stereo partly drawn) [compound 288]
Second: COc1ccc(-c2cc(C(=O)O)ccc2F)cc1C(=O)N[C@@H]1C2CCC(/C2=C/c2ccoc2)[C@@H]1C(=O)Nc1ccc(F)c(C(F)(F)F)c1 (stereo partly drawn) [compound 159]
The EC50 of the first is 6-fold higher: 0.127 µM for the first, 0.021 µM for the second. The second is the more potent here.

Compared with `COc1ccc(C2=NOC3(CCCC3)C2)cc1C(=O)N[C@H]1[C@@H](C(=O)Nc2ccc(F)c(C(F)(F)F)c2)[C@H]2CC[C@@H]1/C2=C\C1CC1` [compound 642], `COc1ccc(C2=NOC3CCCCCCC23)cc1C(=O)N[C@H]1[C@@H](C(=O)Nc2ccc(F)c(C(F)(F)F)c2)[C@H]2CC[C@@H]1/C2=C\C1CC1` (stereo partly drawn) [compound 537] is 8.4-fold lower in EC50: 0.219 µM for the first, 0.026 µM for the second. The second is the more potent here.

Compared with `COc1ccc(-c2cc(NC(=O)CC(=O)O)ccc2F)cc1C(=O)N[C@@H]1C2CCC(/C2=C/c2cnoc2)[C@@H]1C(=O)Nc1ccc(F)c(C(F)(F)F)c1` (stereo partly drawn) [compound 175], `COc1ccc(C2=NOC3COCC23)cc1C(=O)N[C@H]1[C@@H](C(=O)Nc2ccc(F)c(C(F)(F)F)c2)[C@H]2CC[C@@H]1/C2=C\c1cnoc1` (stereo partly drawn) [compound 802] is 5.7-fold lower in EC50: 0.017 µM for the first, 0.003 µM for the second.

Going from `COc1ccc(-c2cc(C(=O)NS(=O)(=O)C3CC3)ccc2F)cc1C(=O)N[C@@H]1C2CCC(C2=C(C)C)[C@@H]1C(=O)Nc1ccc(F)c(C(F)(F)F)c1` (stereo partly drawn) [compound 157] to `COc1ccc(-c2cc(C(OC(=O)NCC(F)(F)F)C(F)(F)F)ccc2F)cc1C(=O)N[C@@H]1C2CCC(/C2=C/C2CC2)[C@@H]1C(=O)Nc1ccc(F)c(C(F)(F)F)c1` (stereo partly drawn) [compound 220], the EC50 falls from 0.61 µM to 0.008 µM (76-fold).

Compared with `COc1ccc(C2CCN(CC(C)(C)O)C2)cc1C(=O)N[C@@H]1C2CCC(C2=CC2CC2)[C@@H]1C(=O)Nc1ccc(F)c(C(F)(F)F)c1` (stereo partly drawn) [compound 568], `COc1ccc(-c2ccnc(N3CCOCC3)c2F)cc1C(=O)N[C@@H]1C2CCC(/C2=C/C2CC2)[C@@H]1C(=O)Nc1ccc(F)c(C(F)(F)F)c1` (stereo partly drawn) [compound 274] is 3.7-fold lower in EC50: 0.0594 µM for the first, 0.016 µM for the second. The second is the more potent here.

Same assay, conditions: cAMP hRXFP1 HEK293 Assay EC50, HEK293 cells stably expressing human RXFP1, 30 min at room temperature

With `COc1cc(F)c(F)cc1C(=O)N[C@@H]1C2CCC(/C2=C/c2c(Cl)cccc2Cl)[C@@H]1C(=O)Nc1ccc(F)c(C(F)(F)F)c1` (stereo partly drawn) [compound 69] the EC50 was 3.7 µM.
